What was measured:
[1] = system: NCI-H1373 lung cancer xenograft; experiment: Tumor growth in human NCI-H1373 lung cancer xenograft; assay type: in vivo, SCID mice
Protocol: For the NCI-H1373 study, SCID mice were inoculated subcutaneously in the right flank with NCI-H1373 cells for tumor development. After 5 days of tumor growth, mice with 89-148 mm^3 tumors were randomized into treatment groups with mean tumor volumes of 121 mm^3. […] Tumor volumes were determined by manual calipers every 2-3 days. Mean tumor volume and SEM are plotted. QD: once a day; PO: per oral administration. Statistical significance is calculated using two-way ANOVA followed by Bonferroni post-tests in which the treatment groups were compared to vehicle control (****P<0.0001).

[2] = system: CT26 colon cancer syngeneic model; experiment: Tumor growth in murine CT26 colon cancer syngeneic model; assay type: in vivo, BALB/c mice; details: BID 125-500 mg/kg or QD 500 mg/kg for 21 days; P<0.0001 vs vehicle (Day 16)
Protocol: For the CT26 study, BALB/c mice were inoculated subcutaneously in the right flank with CT26 cells for tumor development. After 5 days of cell inoculation, mice with 36-79 mm^3 tumors were randomized into treatment groups with mean tumor volumes of 54 mm^3. […] Tumor volumes were determined by manual calipers every 2-3 days. Mean tumor volume and SEM are plotted. BID: twice a day; PO: per oral administration; QD: once a day; SC: per subcutaneous administration. […] Statistical analysis for tumor growth inhibition (TGI) was performed when at least 8 of the 10 mice were remaining in the vehicle group (Day 16). Statistical significance is calculated using two-way ANOVA followed by Bonferroni post-tests in which the treatment groups were compared to vehicle control (**** P<0.0001).

[3] = system: AGS; experiment: Cancer cell growth inhibition (CellTiter-Glo); assay type: cell-based; details: Homo sapiens, gastric adenocarcinoma, 144 hours
Protocol: (§1) Cells were plated into 384-well plates at a pre-specified density in fetal bovine serum-containing media. Cells were treated with compound or vehicle (DMSO) 24 hrs later, and a day zero plate was collected for analysis. Test compound plates were incubated continuously for 144 hours before cells and cell growth was assessed using a luminescent cell viability assay (CellTiter-Glo, Promega). The GI50 was determined by correcting for the cell count at time zero (time of treatment) and plotting data as percent growth relative to vehicle-treated cells.

[4] = system: CAL-27; experiment: Cancer cell growth inhibition (CellTiter-Glo); assay type: cell-based; details: Homo sapiens; CAL-27, tongue squamous cell carcinoma; 144 hours
Protocol: as §1

[5] = system: CFPAC-1; experiment: Cancer cell growth inhibition (CellTiter-Glo); assay type: cell-based; details: Homo sapiens; CFPAC-1, pancreatic ductal adenocarcinoma; 144 hours
Protocol: as §1

[6] = system: COLO 680N; experiment: Cancer cell growth inhibition (CellTiter-Glo); assay type: cell-based; details: Homo sapiens, esophageal squamous cell carcinoma, 144 hours
Protocol: as §1

[7] = system: COR-L105; experiment: Cancer cell growth inhibition (CellTiter-Glo); assay type: cell-based; details: Homo sapiens; COR-L105, lung adenocarcinoma; 144 hours
Protocol: as §1

[8] = system: Caki-1; experiment: Cancer cell growth inhibition (CellTiter-Glo); assay type: cell-based; details: Homo sapiens; Caki-1, clear cell renal cell carcinoma; 144 hours
Protocol: as §1

[9] = system: GCT; experiment: Cancer cell growth inhibition (CellTiter-Glo); assay type: cell-based; details: Homo sapiens, undifferentiated pleiomorphic sarcoma, 144 hours
Protocol: as §1

[10] = system: H4; experiment: Cancer cell growth inhibition (CellTiter-Glo); assay type: cell-based; details: H4, neuroglioma; 144 hours
Protocol: as §1

[11] = system: HCC1954; experiment: Cancer cell growth inhibition (CellTiter-Glo); assay type: cell-based; details: Homo sapiens; HCC1954, ductal breast carcinoma; 144 hours
Protocol: as §1

[12] = system: HCC827; experiment: Cancer cell growth inhibition (CellTiter-Glo); assay type: cell-based; details: Homo sapiens; HCC827, lung adenocarcinoma; 144 hours
Protocol: as §1

[13] = system: HT-1080; experiment: Cancer cell growth inhibition (CellTiter-Glo); assay type: cell-based; details: Homo sapiens; HT-1080, fibrosarcoma; 144 hours
Protocol: as §1

[14] = system: KALS-1; experiment: Cancer cell growth inhibition (CellTiter-Glo); assay type: cell-based; details: Homo sapiens; KALS-1, glioblastoma; 144 hours
Protocol: as §1

[15] = system: KMBC-2; experiment: Cancer cell growth inhibition (CellTiter-Glo); assay type: cell-based; details: KMBC-2, bladder carcinoma; 144 hours
Protocol: as §1

[16] = system: LN-18; experiment: Cancer cell growth inhibition (CellTiter-Glo); assay type: cell-based; details: Homo sapiens; LN-18, glioblastoma; 144 hours
Protocol: as §1

[17] = system: MDA-MB-468; experiment: Cancer cell growth inhibition (CellTiter-Glo); assay type: cell-based; details: Homo sapiens; MDA-MB-468, breast adenocarcinoma; 144 hours
Protocol: as §1

[18] = system: NCI-H1373; experiment: Cancer cell growth inhibition (CellTiter-Glo); assay type: cell-based; details: Homo sapiens; NCI-H1373, lung adenocarcinoma; 144 hours
Protocol: as §1

[19] = system: NCI-H1648; experiment: Cancer cell growth inhibition (CellTiter-Glo); assay type: cell-based; details: Homo sapiens; NCI-H1648, lung adenocarcinoma; 144 hours
Protocol: as §1

[20] = system: NCI-H1944; experiment: Cancer cell growth inhibition (CellTiter-Glo); assay type: cell-based; details: Homo sapiens; NCI-H1944, lung adenocarcinoma; 144 hours
Protocol: as §1

[21] = system: NCI-H1963; experiment: Cancer cell growth inhibition (CellTiter-Glo); assay type: cell-based; details: Homo sapiens; NCI-H1963, small cell lung carcinoma; 144 hours
Protocol: as §1

[22] = system: NCI-H2009; experiment: Cancer cell growth inhibition (CellTiter-Glo); assay type: cell-based; details: Homo sapiens; NCI-H2009, lung adenocarcinoma; 144 hours
Protocol: as §1

[23] = system: NCI-H2066; experiment: Cancer cell growth inhibition (CellTiter-Glo); assay type: cell-based; details: NCI-H2066, squamous cell lung carcinoma; 144 hours
Protocol: as §1

[24] = system: NCI-H2087; experiment: Cancer cell growth inhibition (CellTiter-Glo); assay type: cell-based; details: Homo sapiens; NCI-H2087, lung adenocarcinoma; 144 hours
Protocol: as §1

[25] = system: NCI-H647; experiment: Cancer cell growth inhibition (CellTiter-Glo); assay type: cell-based; details: Homo sapiens; NCI-H647, lung adenosquamous carcinoma; 144 hours
Protocol: as §1

[26] = system: SCC-25; experiment: Cancer cell growth inhibition (CellTiter-Glo); assay type: cell-based; details: Homo sapiens; SCC-25, tongue squamous cell carcinoma; 144 hours
Protocol: as §1

[27] = system: SF126; experiment: Cancer cell growth inhibition (CellTiter-Glo); assay type: cell-based; details: Homo sapiens, SF-126; SF126, glioblastoma multiforme; 144 hours
Protocol: as §1

[28] = system: SW900; experiment: Cancer cell growth inhibition (CellTiter-Glo); assay type: cell-based; details: Homo sapiens; SW900, squamous cell lung carcinoma; 144 hours
Protocol: as §1

[29] = system: TE-11; experiment: Cancer cell growth inhibition (CellTiter-Glo); assay type: cell-based; details: Homo sapiens; TE-11, esophageal squamous cell carcinoma; 144 hours
Protocol: as §1

C[C@@H](COCCC(=O)N1CCN(c2ncc(C(F)(F)F)cn2)CC1)Nc1cn[nH]c(=O)c1C(F)(F)F [Compound 1, 5-[[(2S)-1-(3-oxo-3-[4-[5-(trifluoromethyl)pyrimidin-2-yl]piperazin-1-yl]propoxy)propan-2-yl]amino]-4-(trifluoromethyl)-2,3-dihydropyridazin-3-one]
Tumor growth (tumor volume) vs vehicle ([1]; 62.5, 125, 250, 500 mg/kg QD PO for 28 days, P<0.0001 vs vehicle): significantly reduces tumor growth | Tumor regression ([1]; 62.5 to 500 mg/kg once a day for 28 days, oral gavage, all dose levels): complete tumor regression | Tumor growth (tumor volume) vs vehicle [2]: significantly reduces tumor growth | GI50 [3]: ≥ 1000 nM | GI50 [4]: ≥ 1000 nM | GI50 [5]: 100 to 1000 nM | GI50 [6]: ≥ 1000 nM | GI50 [7]: 100 to 1000 nM | GI50 [8]: < 100 nM | GI50 [9]: < 100 nM | GI50 [10]: ≥ 1000 nM | GI50 [11]: ≥ 1000 nM | GI50 [12]: < 100 nM | GI50 [13]: ≥ 1000 nM | GI50 [14]: ≥ 1000 nM | GI50 [15]: ≥ 1000 nM | GI50 [16]: ≥ 1000 nM | GI50 [17]: ≥ 1000 nM | GI50 [18]: < 100 nM | GI50 [19]: ≥ 1000 nM | GI50 [20]: ≥ 1000 nM | GI50 [21]: ≥ 1000 nM | GI50 [22]: ≥ 1000 nM | GI50 [23]: ≥ 1000 nM | GI50 [24]: ≥ 1000 nM | GI50 [25]: < 100 nM | GI50 [26]: < 100 nM | GI50 [27]: ≥ 1000 nM | GI50 [28]: 100 to 1000 nM | GI50 [29]: ≥ 1000 nM

Source: patent US12371421B2, “Solid forms of a PARP7 inhibitor” (Ribon Therapeutics, Inc., priority 2019, dated 2025)
